Results: patent US20250302815A1, “PROTEIN TYROSINE PHOSPHATASE TARGETING LIGANDS” (CALICO LIFE SCIENCES LLC, priority 2021, published 2025)
Several values for one entry are separate records, joined by “and”; a condition that tells them apart may be missing. Equal entries are not always repeated.

Columns and labels:
[1] = molecular target: T1, PTPN2 (HiBIT-PTPN2 in 293T.109 cells) (Homo sapiens, UniProt P17706); assay: HiBiT Degradation 293T.109 PTPN2 (Nano-Glo HiBiT Lytic Assay); format: cell-based; details: 24.0 hours
T1 construct: expressed in transfected cells; host or cells: 293T.109 (293T WT from ATCC)
T1 sequence (P17706 1-415): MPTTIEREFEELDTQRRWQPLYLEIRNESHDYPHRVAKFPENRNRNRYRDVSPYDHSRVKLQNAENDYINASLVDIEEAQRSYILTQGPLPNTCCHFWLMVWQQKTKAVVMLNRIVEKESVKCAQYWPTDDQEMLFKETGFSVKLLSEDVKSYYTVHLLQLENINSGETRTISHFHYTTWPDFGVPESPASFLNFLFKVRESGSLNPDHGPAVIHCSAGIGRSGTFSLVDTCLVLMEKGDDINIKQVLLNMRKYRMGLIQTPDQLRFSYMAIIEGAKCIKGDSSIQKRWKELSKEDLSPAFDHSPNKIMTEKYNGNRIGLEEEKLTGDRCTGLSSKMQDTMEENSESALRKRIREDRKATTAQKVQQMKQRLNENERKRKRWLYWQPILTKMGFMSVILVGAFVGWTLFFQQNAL
Procedure, shortened: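 293T.109 cells with ectopic N-terminal HiBiT-tagged PTPN2 (5000/well) exposed to compounds for 24 h at 37 °C, 5% CO2; 11-point half-log titration from 10 μM top, duplicates. Remaining HiBiT-PTPN2 read as luminescence with Nano-Glo HiBiT lytic reagent, normalised to untreated cells (0%) and reagent-free wells.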

PTPN2 (B16F10.4 cells) = molecular target: T2, PTPN2 (B16F10.4 cells) (Mus musculus, UniProt Q06180); assay: HiBiT Degradation B16F10.4 PTPN2; format: cell-based; details: 24.0 hours
T2 construct: HiBiT; host or cells: B16F10.4
T2 sequence (Q06180 1-406): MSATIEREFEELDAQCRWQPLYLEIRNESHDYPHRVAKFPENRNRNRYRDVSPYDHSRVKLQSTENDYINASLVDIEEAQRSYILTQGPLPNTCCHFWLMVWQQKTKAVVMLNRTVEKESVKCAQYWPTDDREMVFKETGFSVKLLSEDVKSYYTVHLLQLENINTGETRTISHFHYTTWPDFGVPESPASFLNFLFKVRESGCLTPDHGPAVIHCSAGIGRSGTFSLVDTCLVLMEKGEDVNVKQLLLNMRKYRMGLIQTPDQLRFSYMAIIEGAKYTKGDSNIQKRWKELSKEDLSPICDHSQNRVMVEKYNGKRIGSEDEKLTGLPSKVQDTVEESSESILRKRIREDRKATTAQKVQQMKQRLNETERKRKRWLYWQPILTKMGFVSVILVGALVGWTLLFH

| Structure (SMILES) | DC50 [1] [nM] | DC50 (PTPN2 (B16F10.4 cells)) |
| --- | --- | --- |
| Cn1c(=O)n(C2CCC(=O)NC2=O)c2ccc([C@H]3CCN(C(=O)Nc4cccc(CS(=O)(=O)N5CC[C@H](Nc6cccc(-c7sc(C(=O)O)c(OCC(=O)O)c7Cl)c6)CC5(C)C)c4)C[C@@H]3F)cc21 (some centres unmarked) [Example 171] | < 50 | < 50 nM |
| Cn1c(=O)n(C2CCC(=O)NC2=O)c2ccc(N3CCC(O)(CC(=O)Nc4cccc(CS(=O)(=O)N5CC[C@@H](Nc6cccc(-c7sc(C(=O)O)c(OCC(=O)O)c7Cl)c6)CC5(C)C)c4)CC3)cc21 (stereo partly drawn) [Example 179, 3-(carboxymethoxy)-4-chloro-5-(3-(((4R)-1-((3-(2-(1-(1-(2,6-dioxopiperidin-3-yl)-3-methyl-2-oxo-2,3-dihydro-1H-benzo[d]imidazol-5-yl)-4-hydroxypiperidin-4-yl)acetamido)benzyl)sulfonyl)-2,2-dimethylpiperidin-4-yl)amino)phenyl)thiophene-2-carboxylic acid] | 200 to 1000 | 200 to 1000 nM |
| CC(C)n1c(=O)n(C2CCC(=O)NC2=O)c2ccc(C3CCN(C(=O)Nc4cccc(CS(=O)(=O)N5CC[C@H](Nc6cccc(-c7sc(C(=O)O)c(OCC(=O)O)c7Cl)c6)CC5(C)C)c4)CC3(F)F)cc21 (stereo partly drawn) [Example 181, 3-(carboxymethoxy)-4-chloro-5-[3-[[(4S)-1-[[3-[[4-[1-(2,6-dioxo-3-piperidyl)-3-isopropyl-2-oxo-benzimidazol-5-yl]-3,3-difluoro-piperidine-1-carbonyl]amino]phenyl]methylsulfonyl]-2,2-dimethyl-4-piperidyl]amino]phenyl]thiophene-2-carboxylic acid] | < 50 | < 50 nM |
| Cn1c(=O)n(C2CCC(=O)NC2=O)c2ccc(N3CCC(O)(CC(=O)Nc4cccc(CS(=O)(=O)N5CC[C@H](Nc6cccc(-c7sc(C(=O)O)c(OCC(=O)O)c7Cl)c6)CC5(C)C)c4)CC3)cc21 (stereo partly drawn) [Example 183, 3-(carboxymethoxy)-4-chloro-5-[3-[[(4S)-1-[[3-[[2-[1-[1-(2,6-dioxo-3-piperidyl)-3-methyl-2-oxo-benzimidazol-5-yl]-4-hydroxy-4-piperidyl]acetyl]amino]phenyl]methylsulfonyl]-2,2-dimethyl-4-piperidyl]amino]phenyl]thiophene-2-carboxylic acid] | 50 to 200 | 50 to 200 nM |
| CC1(C)C[C@@H](Nc2cccc(-c3sc(C(=O)O)c(OCC(=O)O)c3Cl)c2F)CCN1S(=O)(=O)Cc1ccc(F)c(NC(=O)C2CN(C(=O)CNc3cccc4c3CN([C@@H]3CCC(=O)NC3=O)C4=O)C2)c1 (single isomer, unassigned) [Example 148a] | < 50 | 200 to 1000 nM |
| Cn1c(=O)n(C2CCC(=O)NC2=O)c2ccc(C3CCN(C(=O)Nc4cccc(CS(=O)(=O)N5CCC(Nc6cccc(-c7sc(C(=O)O)c(OCC(=O)O)c7Cl)c6)CC5)c4F)CC3)cc21 (centres unmarked) [Example 99, 3-(carboxymethoxy)-4-chloro-5-[3-[[1-[[3-[[4-[1-(2,6-dioxo-3-piperidyl)-3-methyl-2-oxo-benzimidazol-5-yl]piperidine-1-carbonyl]amino]-2-fluoro-phenyl]methylsulfonyl]-4-piperidyl]amino]phenyl]thiophene-2-carboxylic acid] | 50 to 200 | < 50 nM |
| Cn1c(=O)n(C2CCC(=O)NC2=O)c2ccc(CN3CCN(C(=O)Nc4cccc(CS(=O)(=O)N5CC[C@H](Nc6cccc(-c7sc(C(=O)O)c(OCC(=O)O)c7Cl)c6)CC5(C)C)c4)CC3)cc21 (stereo partly drawn) [Example 221, 3-(carboxymethoxy)-4-chloro-5-[3-[[(4S)-1-[[3-[[4-[[1-(2,6-dioxo-3-piperidyl)-3-methyl-2-oxo-benzimidazol-5-yl]methyl]piperazine-1-carbonyl]amino]phenyl]methylsulfonyl]-2,2-dimethyl-4-piperidyl]amino]phenyl]thiophene-2-carboxylic acid] | 200 to 1000 | 200 to 1000 nM |
| Cn1c(=O)n(C2CCC(=O)NC2=O)c2ccc(N3CCC(CCNC(=O)Nc4cccc(CS(=O)(=O)N5CC[C@H](Nc6cccc(-c7sc(C(=O)O)c(OCC(=O)O)c7Cl)c6)CC5(C)C)c4)CC3)cc21 (stereo partly drawn) [Example 174, 3-(carboxymethoxy)-4-chloro-5-[3-[[(4S)-1-[[3-[2-[1-[1-(2,6-dioxo-3-piperidyl)-3-methyl-2-oxo-benzimidazol-5-yl]-4-piperidyl]ethylcarbamoylamino]phenyl]methylsulfonyl]-2,2-dimethyl-4-piperidyl]amino]phenyl]thiophene-2-carboxylic acid] | < 50 | 50 to 200 nM |
| Cn1c(=O)n([C@@H]2CCC(=O)NC2=O)c2ccc([C@@H]3CCN(C(=O)Nc4cccc(CS(=O)(=O)N5CC[C@H](Nc6cccc(-c7sc(C(=O)O)c(OCC(=O)O)c7Cl)c6)CC5(C)C)c4)CC3(F)F)cc21 (single isomer, unassigned) [Example 169b] | 50 to 200 | 50 to 200 nM |

Now from value to compound:

| DC50 [1] [nM] | DC50 (PTPN2 (B16F10.4 cells)) | Structure (SMILES) |
| --- | --- | --- |
| < 50 | < 50 nM | CC1(C)C[C@@H](Nc2cccc(-c3sc(C(=O)O)c(OCC(=O)O)c3Cl)c2)CCN1S(=O)(=O)Cc1cccc(NC(=O)[C@H]2CC[C@H](c3ccc4c5c(cccc53)C(=O)N4C3CCC(=O)NC3=O)CC2)c1 (stereo partly drawn) [Example 165, 3-(carboxymethoxy)-4-chloro-5-(3-(((4S)-1-((3-((1r,4S)-4-(1-(2,6-dioxopiperidin-3-yl)-2-oxo-1,2-dihydrobenzo[cd]indol-6-yl)cyclohexane-1-carboxamido)benzyl)sulfonyl)-2,2-dimethylpiperidin-4-yl)amino)phenyl)thiophene-2-carboxylic acid] |
| 50 to 200 | 50 to 200 nM and < 50 nM | CC(C)n1c(=O)n(C2CCC(=O)NC2=O)c2ccc(C3CCN(C(=O)Nc4cccc(CS(=O)(=O)N5CC[C@H](Nc6cccc(-c7sc(C(=O)O)c(OCC(=O)O)c7Cl)c6)CC5(C)C)c4)CC3)cc21 (stereo partly drawn) [Example 87, 3-(carboxymethoxy)-4-chloro-5-[3-[[(4S)-1-[[3-[[4-[1-(2,6-dioxo-3-piperidyl)-3-isopropyl-2-oxo-benzimidazol-5-yl]piperidine-1-carbonyl]amino]phenyl]methylsulfonyl]-2,2-dimethyl-4-piperidyl]amino]phenyl]thiophene-2-carboxylic acid] |
| 50 to 200 | 200 to 1000 nM | CC1(C)C[C@@H](Nc2cccc(-c3sc(C(=O)O)c(OCC(=O)O)c3Cl)c2)CCN1S(=O)(=O)Cc1cccc(NC(=O)C2CCN(C(=O)COc3cccc4c3CN(C3CCC(=O)NC3=O)C4=O)CC2)c1 (stereo partly drawn) [Example 63, 3-(carboxymethoxy)-4-chloro-5-(3-(((4S)-1-((3-(1-(2-((2-(2,6-dioxopiperidin-3-yl)-1-oxoisoindolin-4-yl)oxy)acetyl)piperidine-4-carboxamido)benzyl)sulfonyl)-2,2-dimethylpiperidin-4-yl)amino)phenyl)thiophene-2-carboxylic acid] |
| 50 to 200 | ≥ 1000 nM | CC1(C)C[C@@H](Nc2cccc(-c3sc(C(=O)O)c(OCC(=O)O)c3Cl)c2)CCN1S(=O)(=O)Cc1cccc(NC(=O)C2CCN(C(=O)CNc3ccc4c(c3)CN(C3CCC(=O)NC3=O)C4=O)CC2)c1 (stereo partly drawn) [Example 41, 3-(carboxymethoxy)-4-chloro-5-(3-(((4S)-1-((3-(1-((2-(2,6-dioxopiperidin-3-yl)-1-oxoisoindolin-5-yl)glycyl)piperidine-4-carboxamido)benzyl)sulfonyl)-2,2-dimethylpiperidin-4-yl)amino)phenyl)thiophene-2-carboxylic acid] |
